In patent US9556152B2, “Heterocyclic amides as kinase inhibitors” (GlaxoSmithKline Intellectual Property Development Limited, priority 2013, dated 2017):
Where two headings read alike, the source gives them in different places.

Key:
[1] = system: mouse TNF and zVAD induced temperature loss in mice; experiment: TNF/zVAD-driven systemic inflammatory response syndrome model (short modality), temperature loss; assay type: in vivo
Experimental: (§1) TNF (or TNF/zVAD) induced manifestations include temperature loss, the production of numerous cytokines (including IL-6, IL-1b, MIP1β and MIP2) in the periphery, liver and intestinal inflammation and an increase of markers of cellular (LDH and CK) and liver damage (AST and ALT) in the serum.
Each test compound is run through the TNF/zVAD and TNF (alone) versions of the model. For example, mice (7 mice per group) were orally pre-dosed with vehicle or test compound at 50 mg/kg 15 minutes before i.v. administration of mouse TNF (30 m/mouse) and zVAD (0.4 mg/mouse) simultaneously. Temperature loss in the mice was measured by rectal probe. The study was terminated when the control group lost 7 degrees, per our IACUC protocol. […] All data are shown as means±standard error of the mean.

[2] = target: T1, RIP1 kinase (GST-RipK1 (1-375)) (Homo sapiens, UniProt Q13546)
T1 sequence (Q13546 1-375): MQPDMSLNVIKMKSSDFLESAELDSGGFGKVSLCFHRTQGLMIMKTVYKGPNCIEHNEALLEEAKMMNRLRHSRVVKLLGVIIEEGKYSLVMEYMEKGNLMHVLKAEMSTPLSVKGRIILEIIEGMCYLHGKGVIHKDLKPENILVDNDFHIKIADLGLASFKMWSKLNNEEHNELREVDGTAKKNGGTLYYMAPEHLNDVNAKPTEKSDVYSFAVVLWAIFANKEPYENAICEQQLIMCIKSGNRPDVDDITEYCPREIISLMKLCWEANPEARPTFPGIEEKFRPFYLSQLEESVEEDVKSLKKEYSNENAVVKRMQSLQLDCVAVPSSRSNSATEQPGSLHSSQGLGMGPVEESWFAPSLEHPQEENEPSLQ
Experimental: A fluorescent polarization based binding assay was developed to quantitate interaction of novel test compounds at the ATP binding pocket of RIP1, by competition with a fluorescently labeled ATP competitive ligand. […] Following the incubation, 5 ul of the fluorescent labeled ligand solution, was added to each reaction, at twice the final assay concentration, and incubated at room temperature for at least 15 minutes. Finally, samples were read on an instrument capable of measuring fluorescent polarization. Test compound inhibition was expressed as percent (%) inhibition of internal assay controls. For concentration response experiments, normalized data were fit and pIC50s determined using conventional techniques.

[3] = system: mouse TNF induced temperature loss in mice; experiment: TNF (alone)-driven systemic inflammatory response syndrome model (long modality), temperature loss; assay type: in vivo; conditions: oral pre-dose 50 mg/kg 15 minutes before i.v. mouse TNF
Experimental: as §1
In addition to the TNF/zVAD model, each compound is also tested in a TNF alone model. For the TNF (alone) version of the model, mice (7 mice per group) were orally pre-dosed with vehicle or test compound at 50 mg/kg 15 minutes before i.v. administration of mouse TNF (30 m/mouse). […] All data are shown as means±standard error of the mean.

[4] = oral pre-dose 10 mg/kg 15 minutes before i.v. mouse TNF and zVAD
[5] = mean pIC50, FP competition binding, GST-RipK1 (1-375) 10 nM, fluorescent ligand 5 nM, mean of minimum 2 experiments
[6] = oral pre-dose 30 mg/kg 15 minutes before i.v. mouse TNF and zVAD
[7] = average pIC50 after continued testing, FP competition binding, updated average after continued testing

IC50 [2, 5] [nM]	SMILES	% Inhibition [1, 6] [%]	further results
–	CN1C(=O)[C@@H](NC(=O)c2ncn(Cc3ccccc3)n2)COc2ccccc21 [Example 45, (S)-1-benzyl-N-(5-methyl-4-oxo-2,3,4,5-tetrahydrobenzo[b] [1,4]oxazepin-3-yl)-1H-1,2,4-triazole-3-carboxamide]	–	% Inhibition [1, 4]: 91%
~25.1	CN1C(=O)[C@@H](NC(=O)c2nnc(Cc3ccccc3)[nH]2)COc2cccc(F)c21 [Example 91, (S)-5-benzyl-N-(6-fluoro-5-methyl-4-oxo-2,3,4,5-tetrahydrobenzo[b] [1,4]oxazepin-3-yl)-4H-1,2,4-triazole-3-carboxamide]	–	–
–	CN1C(=O)[C@@H](NC(=O)c2cc(Oc3ccccc3)ccn2)COc2ccccc21 [Example 97, (S)-N-(5-methyl-4-oxo-2,3,4,5-tetrahydrobenzo[b] [1,4]oxazepin-3-yl)-4-phenoxypicolinamide]	70	–
~12.6	O=C(N[C@H]1CCc2cc(Br)ccc2NC1=O)c1nnc(Cc2ccccc2)[nH]1 [Example 163, (S)-5-benzyl-N-(7-bromo-2-oxo-2,3,4,5-tetrahydro-1H-benzo[b]azepin-3-yl)-4H-1,2,4-triazole-3-carboxamide]	–	% Inhibition [1, 4]: 73%
–	Cc1ccc(Cc2cc(C(=O)N[C@H]3CNc4ccccc4N(C)C3=O)n[nH]2)cc1 [Example 64, (S)-N-(1-methyl-2-oxo-2,3,4,5-tetrahydro-1H-benzo[b][1,4]diazepin-3-yl)-5-(4-methylbenzyl)-1H-pyrazole-3-carboxamide]	62	–
–	CN1C(=O)[C@@H](NC(=O)c2cc(Cc3ccccc3)n[nH]2)COc2ccc(Br)cc21 [Example 20, (S)-3-benzyl-N-(7-bromo-5-methyl-4-oxo-2,3,4,5-tetrahydrobenzo[b] [1,4]oxazepin-3-yl)-1H-pyrazole-5-carboxamide]	52	% Inhibition [3]: 51%
~63.1	Cc1nnc(-c2ccc3c(c2)N(C)C(=O)[C@@H](NC(=O)c2nnc(Cc4ccccc4)[nH]2)CO3)o1 [Example 169, (S)-5-benzyl-N-(5-methyl-7-(5-methyl-1,3,4-oxadiazol-2-yl)-4-oxo-2,3,4,5-tetrahydrobenzo[b][1, 4]oxazepin-3-yl)-4H-1,2,4-triazole-3-carboxamide]	–	IC50 [2, 7]: 50.1 nM
–	Cc1ccc(Cc2cc(C(=O)N[C@H]3COc4ccccc4N(C)C3=O)[nH]n2)cc1 [Example 176, (S)-N-(5-methyl-4-oxo-2,3,4,5-tetrahydrobenzo[b] [1,4]oxazepin-3-yl)-5-(4-methylbenzyl)-1H-pyrazole-3-carboxamide]	34	–
–	CN1C(=O)[C@@H](NC(=O)c2cc(Cc3ccccc3)n[nH]2)COc2ccccc21 [Example 108, (S)-3-benzyl-N-(5-methyl-4-oxo-2,3,4,5-tetrahydrobenzo[b] [1,4]oxazepin-3-yl)-1H-pyrazole-5-carboxamide]	56	–
–	CN1C(=O)[C@@H](NC(=O)c2cc(Cc3ccc(F)cc3)n[nH]2)COc2ccccc21 [Example 125, (S)-3-(4-fluorobenzyl)-N-(5-methyl-4-oxo-2,3,4,5-tetrahydrobenzo[b] [1,4]oxazepin-3-yl)-1H-pyrazole-5-carboxamide]	25	–
–	O=C(N[C@H]1CCc2ccccc2NC1=O)c1cc(Cc2ccccc2)on1 [Example 236, (S)-5-benzyl-N-(2-oxo-2,3,4,5-tetrahydro-1H-benzo[b]azepin-3-yl)isoxazole-3-carboxamide]	23	–
–	CN1C(=O)[C@@H](NC(=O)c2cc(Cc3ccccc3)[nH]n2)CNc2ccccc21 [Example 190, (S)-5-benzyl-N-(1-methyl-2-oxo-2,3,4,5-tetrahydro-1H-benzo[b] [1,4]diazepin-3-yl)-1H-pyrazole-3-carboxamide]	85	% Inhibition [3]: 56%
~15.8	Cc1cc(F)c2c(c1)OC[C@H](NC(=O)c1nnc(CC3CCCC3)[nH]1)C(=O)N2 [Example 102, (S)-5-(cyclopentylmethyl)-N-(6-fluoro-8-methyl-4-oxo-2,3,4,5-tetrahydrobenzo[b] [1,4]oxazepin-3-yl)-4H-1,2,4-triazole-3-carboxamide]	–	–
–	CN1C(=O)[C@@H](NC(=O)c2cc(Cc3ccccc3)on2)CNc2ccccc21 [Example 235, (S)-5-benzyl-N-(1-methyl-2-oxo-2,3,4,5-tetrahydro-1H-benzo[b] [1,4]diazepin-3-yl)isoxazole-3-carboxamide]	58	% Inhibition [3]: 73%

SMILES	IC50 [2, 5] [nM]	% Inhibition [1, 6] [%]	further results
O=C(N[C@H]1CCc2cc(Cl)ccc2NC1=O)c1nnc(Cc2ccccc2)[nH]1 [Example 161, (S)-5-benzyl-N-(7-chloro-2-oxo-2,3,4,5-tetrahydro-1H-benzo[b]azepin-3-yl)-4H-1,2,4-triazole-3-carboxamide]	~12.6	–	IC50 [2, 7]: 20 nM; % Inhibition ([1]; oral pre-dose 50 mg/kg 15 minutes before i.v. mouse TNF and zVAD): 85%; % Inhibition [3]: 82%
